Molecules are shown by their SMILES. Activity calls are given as the source filed them.

Experiment [1] deals with T1, Apoptotic protease-activating factor 1 (Homo sapiens, UniProt O14727).
T1 sequence (O14727 whole entry): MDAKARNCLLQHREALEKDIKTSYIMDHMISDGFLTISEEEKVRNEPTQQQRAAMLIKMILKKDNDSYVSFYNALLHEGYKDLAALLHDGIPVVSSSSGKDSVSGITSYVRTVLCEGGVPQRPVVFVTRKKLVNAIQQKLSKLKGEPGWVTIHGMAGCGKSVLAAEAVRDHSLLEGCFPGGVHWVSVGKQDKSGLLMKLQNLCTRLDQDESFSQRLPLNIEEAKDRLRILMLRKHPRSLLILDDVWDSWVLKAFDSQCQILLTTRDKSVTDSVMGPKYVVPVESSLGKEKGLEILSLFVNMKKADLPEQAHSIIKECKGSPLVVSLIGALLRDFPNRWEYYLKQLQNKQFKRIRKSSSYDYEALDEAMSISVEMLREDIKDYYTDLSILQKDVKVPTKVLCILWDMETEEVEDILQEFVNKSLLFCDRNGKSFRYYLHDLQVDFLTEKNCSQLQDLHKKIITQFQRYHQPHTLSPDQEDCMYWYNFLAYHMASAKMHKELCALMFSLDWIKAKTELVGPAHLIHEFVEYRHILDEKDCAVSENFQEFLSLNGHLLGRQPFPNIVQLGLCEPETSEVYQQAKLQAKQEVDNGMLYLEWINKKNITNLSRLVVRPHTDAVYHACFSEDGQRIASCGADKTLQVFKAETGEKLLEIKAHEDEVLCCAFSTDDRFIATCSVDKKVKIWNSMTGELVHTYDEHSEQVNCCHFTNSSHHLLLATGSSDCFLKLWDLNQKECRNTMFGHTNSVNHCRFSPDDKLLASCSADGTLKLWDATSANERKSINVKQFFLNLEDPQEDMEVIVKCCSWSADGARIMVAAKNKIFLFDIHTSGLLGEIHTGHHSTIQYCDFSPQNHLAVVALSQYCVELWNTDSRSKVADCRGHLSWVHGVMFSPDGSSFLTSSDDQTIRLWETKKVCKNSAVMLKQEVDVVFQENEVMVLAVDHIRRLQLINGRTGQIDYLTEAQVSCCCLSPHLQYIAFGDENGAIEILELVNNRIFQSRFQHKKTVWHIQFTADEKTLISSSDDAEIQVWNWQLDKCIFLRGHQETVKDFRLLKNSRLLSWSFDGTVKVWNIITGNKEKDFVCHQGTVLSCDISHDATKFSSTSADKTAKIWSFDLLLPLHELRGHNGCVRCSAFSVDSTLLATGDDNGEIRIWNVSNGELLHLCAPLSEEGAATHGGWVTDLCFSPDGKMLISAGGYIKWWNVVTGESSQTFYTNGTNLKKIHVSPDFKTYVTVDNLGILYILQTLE
Format: functional.

The target of experiment [2] is T2, Mannose-6-phosphate isomerase (Homo sapiens, UniProt P34949).
T2 sequence (P34949 whole entry): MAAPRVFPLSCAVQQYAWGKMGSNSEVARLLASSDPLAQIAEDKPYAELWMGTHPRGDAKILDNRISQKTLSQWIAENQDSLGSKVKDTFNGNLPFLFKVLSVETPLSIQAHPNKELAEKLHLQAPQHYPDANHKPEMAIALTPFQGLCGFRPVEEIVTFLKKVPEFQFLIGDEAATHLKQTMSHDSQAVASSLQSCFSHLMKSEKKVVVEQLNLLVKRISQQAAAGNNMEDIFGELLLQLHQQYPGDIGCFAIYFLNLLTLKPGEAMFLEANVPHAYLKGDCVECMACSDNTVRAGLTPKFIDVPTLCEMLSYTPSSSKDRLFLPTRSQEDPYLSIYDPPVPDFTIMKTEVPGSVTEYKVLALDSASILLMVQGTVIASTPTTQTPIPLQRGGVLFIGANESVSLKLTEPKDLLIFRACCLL
Description: MPI enzyme activity inhibition – biochemical, fluorescence intensity, coupled assay, primary screen (AID 1209).

Experiment [3] addresses T2, Mannose-6-phosphate isomerase. Description: MPI inhibition at elevated mannose 6-phosphate – biochemical, fluorescence intensity, high mannose 6-phosphate, primary screen (AID 1220).
The target of experiment [4] is T3, Voltage-gated N-type calcium channel alpha-1B subunit/Amyloid beta A4 precursor protein-binding family A member 1 (Homo sapiens, UniProt Q00975+Q02410). Format: protein assay.
For experiment [5], the target named is T3, Voltage-gated N-type calcium channel alpha-1B subunit/Amyloid beta A4 precursor protein-binding family A member 1. The experiment is classed as protein assay. This is another data set of the same source.
The target of a further experiment is T4, Bcl-2-like protein 10 (Homo sapiens, UniProt Q9HD36).
T4 sequence (Q9HD36 whole entry): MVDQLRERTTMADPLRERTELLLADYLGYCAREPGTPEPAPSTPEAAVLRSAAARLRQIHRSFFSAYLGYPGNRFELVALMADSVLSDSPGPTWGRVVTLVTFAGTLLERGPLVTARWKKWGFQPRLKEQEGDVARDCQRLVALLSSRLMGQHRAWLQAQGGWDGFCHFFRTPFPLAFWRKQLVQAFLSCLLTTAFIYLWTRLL
Description: Bcl-B/TR3 peptide binding disruption – biochemical, fluorescence polarization, FITC-TR3 peptide, selectivity assay for Bfl-1 inhibitor project, primary screen (AID 748).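 Also: fluorescence polarization from a fluorescein-labelled TR3 peptide binding purified Bcl-B.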 For orientation: Polarisation of emitted light reports the rotation of a fluorescent probe.

The target in experiment [6] is T5, Alkaline phosphatase, tissue-nonspecific isozyme (Homo sapiens, UniProt P05186).
T5 sequence (P05186 whole entry): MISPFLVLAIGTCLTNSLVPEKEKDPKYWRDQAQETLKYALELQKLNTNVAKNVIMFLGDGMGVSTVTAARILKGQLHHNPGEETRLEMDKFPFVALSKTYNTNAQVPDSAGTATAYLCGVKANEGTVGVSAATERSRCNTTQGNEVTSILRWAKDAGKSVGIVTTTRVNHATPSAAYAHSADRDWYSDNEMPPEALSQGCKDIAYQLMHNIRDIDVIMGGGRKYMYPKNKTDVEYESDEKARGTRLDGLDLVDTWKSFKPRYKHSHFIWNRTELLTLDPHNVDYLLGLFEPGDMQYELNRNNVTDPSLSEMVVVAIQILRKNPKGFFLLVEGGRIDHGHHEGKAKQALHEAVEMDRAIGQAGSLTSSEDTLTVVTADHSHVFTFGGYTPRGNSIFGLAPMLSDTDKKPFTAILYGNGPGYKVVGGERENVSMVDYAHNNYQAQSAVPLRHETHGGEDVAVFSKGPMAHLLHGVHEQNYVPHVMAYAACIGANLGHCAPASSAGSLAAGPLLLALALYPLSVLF
Description: potency against alkaline phosphatase TNAP – biochemical, luminescent, dose response, SAR follow-up (AID 1056).

The target in experiment [7] is Glyceraldehyde-3-phosphate dehydrogenase (Homo sapiens, UniProt P04406).
For the next experiment, the target named is T6, Estrogen receptor (Homo sapiens, UniProt P03372).
T6 sequence (P03372 whole entry): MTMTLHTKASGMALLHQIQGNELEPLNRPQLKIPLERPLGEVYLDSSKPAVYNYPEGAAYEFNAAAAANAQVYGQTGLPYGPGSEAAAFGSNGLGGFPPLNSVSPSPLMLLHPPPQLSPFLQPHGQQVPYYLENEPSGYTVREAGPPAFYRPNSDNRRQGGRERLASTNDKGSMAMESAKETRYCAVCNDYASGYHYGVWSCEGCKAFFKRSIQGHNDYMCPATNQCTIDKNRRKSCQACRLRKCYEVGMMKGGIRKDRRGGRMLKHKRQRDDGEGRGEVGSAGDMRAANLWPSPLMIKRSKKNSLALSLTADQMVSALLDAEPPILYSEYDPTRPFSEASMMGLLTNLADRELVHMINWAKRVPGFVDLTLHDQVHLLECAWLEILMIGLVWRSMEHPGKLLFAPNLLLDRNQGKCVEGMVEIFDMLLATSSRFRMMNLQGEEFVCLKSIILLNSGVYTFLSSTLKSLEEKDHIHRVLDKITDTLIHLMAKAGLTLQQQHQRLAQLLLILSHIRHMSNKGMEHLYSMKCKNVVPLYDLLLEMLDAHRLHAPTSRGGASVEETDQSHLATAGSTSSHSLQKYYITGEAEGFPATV

Experiment [8] concerns the target Induced myeloid leukemia cell differentiation protein Mcl-1 (Homo sapiens, UniProt Q07820). The experiment is classed as functional.
The next experiment concerns the target T7, Hexokinase HKDC1 (Homo sapiens, UniProt Q2TB90).
T7 sequence (Q2TB90 whole entry): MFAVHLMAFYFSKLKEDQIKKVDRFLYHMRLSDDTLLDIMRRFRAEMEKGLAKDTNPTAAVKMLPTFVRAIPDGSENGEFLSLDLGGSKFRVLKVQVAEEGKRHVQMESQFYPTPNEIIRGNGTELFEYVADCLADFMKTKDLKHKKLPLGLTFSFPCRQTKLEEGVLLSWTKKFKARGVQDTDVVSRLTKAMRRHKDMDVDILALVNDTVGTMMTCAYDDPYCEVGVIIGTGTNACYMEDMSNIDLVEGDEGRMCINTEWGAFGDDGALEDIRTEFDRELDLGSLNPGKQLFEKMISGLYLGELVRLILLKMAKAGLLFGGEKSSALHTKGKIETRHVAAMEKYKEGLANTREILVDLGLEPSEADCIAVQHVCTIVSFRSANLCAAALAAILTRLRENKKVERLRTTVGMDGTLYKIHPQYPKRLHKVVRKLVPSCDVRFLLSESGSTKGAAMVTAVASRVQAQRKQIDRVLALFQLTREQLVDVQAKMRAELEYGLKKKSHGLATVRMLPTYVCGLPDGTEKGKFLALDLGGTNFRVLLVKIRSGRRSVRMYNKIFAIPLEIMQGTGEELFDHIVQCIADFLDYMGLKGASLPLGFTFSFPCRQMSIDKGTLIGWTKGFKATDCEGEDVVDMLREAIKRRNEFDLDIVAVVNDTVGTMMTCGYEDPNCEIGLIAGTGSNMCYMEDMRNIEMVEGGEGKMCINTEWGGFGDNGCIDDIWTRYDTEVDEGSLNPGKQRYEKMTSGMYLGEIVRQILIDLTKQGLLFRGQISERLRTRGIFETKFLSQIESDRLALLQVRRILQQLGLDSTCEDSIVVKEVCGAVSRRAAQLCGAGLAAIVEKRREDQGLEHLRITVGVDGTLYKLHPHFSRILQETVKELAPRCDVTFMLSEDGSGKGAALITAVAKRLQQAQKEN
Description: inhibition of HKDC1 glucose phosphorylation – biochemical, W721R variant, dose response (AID 504729). The experiment is classed as functional.

In experiment [9] the target is G-protein coupled receptor 55 (Homo sapiens, UniProt Q9Y2T6). Description: selective activators of receptor GPR55 – imaging, U2OS cells, beta-arrestin-GFP redistribution, primary screen (AID 1961). Format: functional.
Experiment [10] can be described thus: NIH3T3 cell viability loss – ATP luminescence, mouse fibroblasts, counter-screen, dose response (AID 2010).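 Also: cells exposed to compound for about 90 hours before reading.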 Format: functional, cell-based.
Experiment [11] can be described thus: Trypanosoma cruzi growth suppression in host cells – NIH3T3 host cells, beta-gal luminescence, confirmation (AID 2044).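 Also: intracellular parasites grown in NIH/3T3 mouse fibroblasts as host cells; luminescent beta-galactosidase reporter signal from transgenic T. cruzi replicating inside host cells; inhibitors lower the luminescence signal.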 Format: functional, cell-based.
The next experiment addresses Estrogen receptor beta (Homo sapiens, UniProt Q92731).
For experiment [12], the target named is Intestinal-type alkaline phosphatase (Homo sapiens, UniProt P09923). Description: Dose Response confirmation of uHTS hits from a small molecule inhibitors of human intestinal alkaline phosphatase via a luminescent assay. [Related pubchem assays (depositor defined):AID2544, AID2574]. The experiment is classed as functional.

T3 sequence (Q00975 whole entry): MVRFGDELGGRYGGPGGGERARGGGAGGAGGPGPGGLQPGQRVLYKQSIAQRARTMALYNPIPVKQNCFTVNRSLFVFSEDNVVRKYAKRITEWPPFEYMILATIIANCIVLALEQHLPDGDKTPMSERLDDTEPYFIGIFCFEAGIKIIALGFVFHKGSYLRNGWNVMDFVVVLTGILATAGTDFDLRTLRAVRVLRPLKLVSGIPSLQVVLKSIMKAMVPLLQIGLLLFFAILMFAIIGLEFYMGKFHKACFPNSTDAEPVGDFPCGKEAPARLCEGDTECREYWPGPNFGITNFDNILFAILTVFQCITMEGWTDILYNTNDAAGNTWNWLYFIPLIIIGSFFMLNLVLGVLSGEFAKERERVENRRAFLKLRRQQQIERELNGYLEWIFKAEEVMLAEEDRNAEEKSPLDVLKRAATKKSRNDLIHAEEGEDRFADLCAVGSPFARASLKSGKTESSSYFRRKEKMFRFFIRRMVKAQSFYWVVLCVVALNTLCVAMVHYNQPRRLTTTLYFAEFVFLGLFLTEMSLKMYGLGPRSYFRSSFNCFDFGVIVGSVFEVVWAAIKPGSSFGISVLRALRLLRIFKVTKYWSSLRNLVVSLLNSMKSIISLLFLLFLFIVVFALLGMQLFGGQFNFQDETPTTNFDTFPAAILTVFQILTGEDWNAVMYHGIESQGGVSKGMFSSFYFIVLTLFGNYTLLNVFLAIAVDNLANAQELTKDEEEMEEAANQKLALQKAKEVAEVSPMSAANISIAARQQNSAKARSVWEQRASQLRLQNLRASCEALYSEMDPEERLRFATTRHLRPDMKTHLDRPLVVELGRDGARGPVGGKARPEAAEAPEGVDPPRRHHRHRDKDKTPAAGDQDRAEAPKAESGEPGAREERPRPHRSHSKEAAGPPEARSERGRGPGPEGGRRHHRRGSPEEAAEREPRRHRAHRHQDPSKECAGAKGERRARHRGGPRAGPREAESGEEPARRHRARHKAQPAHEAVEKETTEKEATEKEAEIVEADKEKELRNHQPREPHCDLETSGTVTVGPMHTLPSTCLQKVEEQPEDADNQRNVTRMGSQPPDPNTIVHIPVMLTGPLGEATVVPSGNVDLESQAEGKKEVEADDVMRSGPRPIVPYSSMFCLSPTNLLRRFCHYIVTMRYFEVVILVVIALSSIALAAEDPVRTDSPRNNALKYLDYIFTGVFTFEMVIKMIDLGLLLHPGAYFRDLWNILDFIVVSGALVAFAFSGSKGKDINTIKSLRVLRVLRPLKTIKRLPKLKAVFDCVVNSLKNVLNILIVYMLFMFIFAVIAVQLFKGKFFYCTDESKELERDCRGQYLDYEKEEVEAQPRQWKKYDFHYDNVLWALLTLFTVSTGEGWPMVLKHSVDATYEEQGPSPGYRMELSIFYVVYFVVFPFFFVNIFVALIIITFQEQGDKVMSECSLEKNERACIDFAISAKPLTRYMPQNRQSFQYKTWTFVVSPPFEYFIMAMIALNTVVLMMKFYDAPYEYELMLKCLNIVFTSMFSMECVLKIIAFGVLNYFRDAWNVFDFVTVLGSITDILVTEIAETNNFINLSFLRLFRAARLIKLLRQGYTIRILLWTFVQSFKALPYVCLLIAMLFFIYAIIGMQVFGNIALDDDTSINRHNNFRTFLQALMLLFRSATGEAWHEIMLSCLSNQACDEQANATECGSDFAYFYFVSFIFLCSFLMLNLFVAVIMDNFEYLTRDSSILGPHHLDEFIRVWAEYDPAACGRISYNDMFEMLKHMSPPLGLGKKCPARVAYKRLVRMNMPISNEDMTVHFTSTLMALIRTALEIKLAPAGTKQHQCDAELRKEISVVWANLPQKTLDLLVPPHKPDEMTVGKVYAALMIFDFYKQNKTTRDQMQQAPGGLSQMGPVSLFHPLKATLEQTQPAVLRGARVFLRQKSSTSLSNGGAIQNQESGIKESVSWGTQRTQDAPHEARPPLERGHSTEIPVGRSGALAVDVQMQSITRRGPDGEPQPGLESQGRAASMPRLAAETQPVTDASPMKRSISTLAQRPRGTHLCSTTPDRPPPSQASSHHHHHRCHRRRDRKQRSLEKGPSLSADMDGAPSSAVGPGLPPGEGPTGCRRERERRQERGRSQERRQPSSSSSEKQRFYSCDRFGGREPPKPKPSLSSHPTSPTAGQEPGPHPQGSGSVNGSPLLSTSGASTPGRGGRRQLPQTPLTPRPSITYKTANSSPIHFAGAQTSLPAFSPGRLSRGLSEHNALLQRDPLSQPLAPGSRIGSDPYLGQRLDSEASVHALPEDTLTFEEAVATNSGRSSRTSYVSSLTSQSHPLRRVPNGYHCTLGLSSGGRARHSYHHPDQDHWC
T3 sequence (Q02410 whole entry): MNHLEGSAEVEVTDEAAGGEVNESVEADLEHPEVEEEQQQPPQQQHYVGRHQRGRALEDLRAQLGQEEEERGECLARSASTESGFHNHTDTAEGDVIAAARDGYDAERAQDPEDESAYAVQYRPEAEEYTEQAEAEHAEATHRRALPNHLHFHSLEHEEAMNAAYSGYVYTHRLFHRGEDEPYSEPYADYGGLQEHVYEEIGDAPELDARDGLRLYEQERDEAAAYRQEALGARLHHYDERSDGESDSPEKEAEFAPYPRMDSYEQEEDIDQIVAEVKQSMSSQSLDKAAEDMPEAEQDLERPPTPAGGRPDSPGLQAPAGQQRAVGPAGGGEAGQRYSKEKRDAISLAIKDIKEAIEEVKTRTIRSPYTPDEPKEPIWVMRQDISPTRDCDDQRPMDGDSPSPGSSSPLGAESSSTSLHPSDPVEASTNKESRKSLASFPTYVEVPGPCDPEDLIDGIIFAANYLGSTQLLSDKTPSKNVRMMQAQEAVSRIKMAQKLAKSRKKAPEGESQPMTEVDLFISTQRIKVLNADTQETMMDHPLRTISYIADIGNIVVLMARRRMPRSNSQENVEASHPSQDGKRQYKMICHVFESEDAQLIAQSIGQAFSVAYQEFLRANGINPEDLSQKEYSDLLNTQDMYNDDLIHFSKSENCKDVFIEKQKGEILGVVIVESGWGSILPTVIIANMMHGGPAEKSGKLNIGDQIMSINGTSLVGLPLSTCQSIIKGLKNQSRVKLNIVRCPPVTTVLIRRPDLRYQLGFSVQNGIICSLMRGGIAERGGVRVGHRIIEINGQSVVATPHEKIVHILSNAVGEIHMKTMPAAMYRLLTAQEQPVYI
Sequence of Glyceraldehyde-3-phosphate dehydrogenase (P04406 whole entry): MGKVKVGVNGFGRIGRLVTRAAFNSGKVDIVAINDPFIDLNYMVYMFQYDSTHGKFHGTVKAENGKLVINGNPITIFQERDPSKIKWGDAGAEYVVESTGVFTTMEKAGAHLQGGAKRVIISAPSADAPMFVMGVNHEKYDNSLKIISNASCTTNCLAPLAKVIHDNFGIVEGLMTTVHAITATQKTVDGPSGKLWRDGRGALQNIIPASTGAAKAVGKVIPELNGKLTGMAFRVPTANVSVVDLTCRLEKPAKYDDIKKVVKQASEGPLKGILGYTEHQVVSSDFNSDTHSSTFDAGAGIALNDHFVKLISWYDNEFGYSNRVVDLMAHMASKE
Sequence of Induced myeloid leukemia cell differentiation protein Mcl-1 (Q07820 whole entry): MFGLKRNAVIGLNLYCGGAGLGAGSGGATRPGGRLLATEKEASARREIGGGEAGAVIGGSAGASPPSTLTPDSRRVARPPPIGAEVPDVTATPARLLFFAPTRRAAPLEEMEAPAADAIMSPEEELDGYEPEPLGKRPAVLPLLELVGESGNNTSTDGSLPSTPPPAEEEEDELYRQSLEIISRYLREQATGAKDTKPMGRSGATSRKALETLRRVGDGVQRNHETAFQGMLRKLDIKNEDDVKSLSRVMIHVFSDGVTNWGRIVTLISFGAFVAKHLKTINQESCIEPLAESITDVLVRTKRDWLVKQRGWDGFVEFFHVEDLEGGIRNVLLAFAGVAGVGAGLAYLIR
Sequence of G-protein coupled receptor 55 (Q9Y2T6 whole entry): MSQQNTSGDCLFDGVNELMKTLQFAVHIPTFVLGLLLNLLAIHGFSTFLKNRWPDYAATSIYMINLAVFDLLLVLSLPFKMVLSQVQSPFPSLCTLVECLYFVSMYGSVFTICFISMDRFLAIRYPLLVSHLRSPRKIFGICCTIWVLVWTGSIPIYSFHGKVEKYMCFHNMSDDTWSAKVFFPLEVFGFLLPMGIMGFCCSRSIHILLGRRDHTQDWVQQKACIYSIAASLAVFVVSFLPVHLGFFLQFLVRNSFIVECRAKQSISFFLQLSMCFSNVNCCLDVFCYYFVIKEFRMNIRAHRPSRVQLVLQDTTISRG
Sequence of Estrogen receptor beta (Q92731 whole entry): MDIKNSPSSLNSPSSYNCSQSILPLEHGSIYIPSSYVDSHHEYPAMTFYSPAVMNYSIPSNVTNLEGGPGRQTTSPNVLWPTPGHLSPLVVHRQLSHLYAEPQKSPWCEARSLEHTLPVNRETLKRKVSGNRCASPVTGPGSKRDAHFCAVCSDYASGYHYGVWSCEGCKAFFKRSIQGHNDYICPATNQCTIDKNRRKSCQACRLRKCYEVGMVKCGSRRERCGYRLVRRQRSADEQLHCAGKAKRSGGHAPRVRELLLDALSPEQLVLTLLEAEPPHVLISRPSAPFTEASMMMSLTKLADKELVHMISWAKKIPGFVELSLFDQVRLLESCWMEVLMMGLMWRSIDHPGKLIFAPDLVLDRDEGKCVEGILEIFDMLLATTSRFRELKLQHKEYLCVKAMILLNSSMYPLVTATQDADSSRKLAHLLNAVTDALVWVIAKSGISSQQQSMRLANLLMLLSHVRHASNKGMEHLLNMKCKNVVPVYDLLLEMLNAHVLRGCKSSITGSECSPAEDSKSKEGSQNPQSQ

A word on the IC50: it is the concentration at which inhibition is half-maximal. Regarding `CCCCCn1c(NC(=O)c2ccco2)c(C(=O)OCC)c2nc3ccccc3nc21`, the half-inhibitory concentration (IC50) was 20.3 µM (active) in [1], > 50 µM (not active) in experiment [2] and > 50 µM (not active) in [3].
On to `CC1=C(C(=O)O)N2C(=O)C(NC(=O)c3nn(C)c(C)c3Cl)C2SC1` (centres undefined), for which the IC50 in experiment [4] was 9.8 µM (active); in experiment [5], > 50 µM (inactive).
Consider `Cc1c(Cl)cnc(NC(=O)COC(=O)C(NC(=O)c2ccco2)C(C)C)c1Cl` (centres undefined), for which the IC50 at Bcl-2-like protein 10 was 18.2 µM (active).
Take `O=C1[C@H]2CCCC[C@H]2C(=O)N1c1nnc(Cc2ccc(F)cc2)[nH]1`: the concentration for half-maximal inhibition (IC50) was 10.2 µM (active) in experiment [6] and > 100 µM (not active) in [7].
`CSc1nnc(NC(=O)CSc2nc(C)cc(C)n2)[nH]1`: the IC50 in experiment [6] is > 100 µM (inactive).
Turning to `Cc1cc(C)nc(NC(=O)CSc2nn(C)c(=S)s2)n1`, at Estrogen receptor, the IC50 was 8.77 µM (active).
For the molecule `C=CCN1C(=O)/C(=C2/C(=O)N(CC(=O)O)c3ccccc32)S/C1=N/c1nccs1`, the IC50 at Bcl-2-like protein 10 was 3.03 µM (active); in experiment [8], 2.78 µM (active).
As to `Cc1nc2c(c(=O)c3ccccc3n2C)c(=O)n1-c1ccccc1`, the IC50 on Hexokinase HKDC1 is 11.8 µM (active).
As usually defined, the EC50 is the concentration giving half of the maximal effect. Consider `CCCN(CCC)c1nc2c(C)cccn2c(=O)c1/C=C1/SC(=S)N(Cc2ccco2)C1=O`, for which the EC50 in experiment [9] was 2.97 µM (active); in experiment [10], > 30 µM (not active); in experiment [11], 352 nM (active).
For the molecule `Cc1cc(Cl)c(S(=O)(=O)Nc2ccc3c(c2)OCO3)cc1OCC(N)=O`, the IC50 at Estrogen receptor beta and against Estrogen receptor was > 50 µM (not active) in each case.
On to `COC(=O)c1cc2ccsc2n1CC(=O)Nc1ccc(N(C)C)cc1`, for which the EC50 in [10] is > 30 µM (not active); in experiment [11], 4340 nM (active). The IC50 at Estrogen receptor was 47.3 µM (not active).
Regarding `N#CC(C#N)=NNc1ccc(S(N)(=O)=O)cc1`, the figures for the IC50 in experiment [4], in [5] and in experiment [8] were 16.9 µM (active), > 50 µM (inactive) and 4.71 µM (active), respectively.
In the case of `CC(=O)Nc1ccc(SC[C@H](CC(C)C)N2CCN(CCc3ccccc3)CCC2=O)cc1`, in experiment [9], the EC50 was 9 µM (active).
With `Cc1ccc2[nH]c(SCC(=O)Nc3ccc(O)c(C(=O)O)c3)nc2c1`, the IC50 in [7] is listed as > 100 µM (not active).
For the molecule `Cc1snc(SCC(=O)c2ccc([N+](=O)[O-])cc2)c1C#N`, the IC50 in [2] is 33.9 µM (active).
Regarding `CC(C)c1nc2oc3c(NCCO)ncnc3c2c2c1COC(C)(C)C2`, the IC50 at Hexokinase HKDC1 was 3.39 µM (active).
As for `O=C(CN1CCN(C(=O)N2CCCCC2)CC1)Nc1ccc(F)cc1`, the IC50 in [12] was > 100 µM (inactive).

(Values after ChEMBL document CHEMBL1201862, “PubChem BioAssay data set” (2004).)
